# Experiments:
# hERG (KCNH2) = hERG (KCNH2) (Homo sapiens, UniProt Q12809); assay: Selectivity interaction (Safety Panel 44tm (Eurofins)) EUB0000162b KCNH2; settings: at 10 µM, read-out: % of control
# [1] = molecular target: T1, Homeodomain-interacting protein kinase 4 (Homo sapiens) (UniProt Q8NE63); assay: Selectivity interaction (KinomeScan (DiscoverX)) EUB0000695a HIPK4; settings: at 100 nM
# T1 sequence (whole entry): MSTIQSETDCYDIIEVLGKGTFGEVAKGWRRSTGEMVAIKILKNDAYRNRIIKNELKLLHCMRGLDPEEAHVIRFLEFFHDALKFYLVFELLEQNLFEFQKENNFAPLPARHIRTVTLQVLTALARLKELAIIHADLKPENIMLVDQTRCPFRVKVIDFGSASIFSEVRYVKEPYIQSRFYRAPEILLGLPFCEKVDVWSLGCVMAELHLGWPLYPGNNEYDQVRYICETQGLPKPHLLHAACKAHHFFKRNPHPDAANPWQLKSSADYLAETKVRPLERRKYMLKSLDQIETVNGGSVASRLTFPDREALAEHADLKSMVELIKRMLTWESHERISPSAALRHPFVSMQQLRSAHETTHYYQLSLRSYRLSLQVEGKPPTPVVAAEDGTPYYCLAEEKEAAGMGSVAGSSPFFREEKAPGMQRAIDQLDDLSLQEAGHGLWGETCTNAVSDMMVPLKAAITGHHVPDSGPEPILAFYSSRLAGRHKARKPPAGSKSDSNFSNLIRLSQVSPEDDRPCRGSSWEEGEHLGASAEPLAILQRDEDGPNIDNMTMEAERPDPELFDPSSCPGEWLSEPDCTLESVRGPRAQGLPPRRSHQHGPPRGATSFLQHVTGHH
# [2] = molecular target: BDNF/NT-3 growth factors receptor (Homo sapiens) (UniProt Q16620); assay: Selectivity interaction (KinomeScan (DiscoverX)) EUB0001049a NTRK2; settings: at 1 µM
# [3] = molecular target: T2, Ephrin type-B receptor 3 (Homo sapiens) (UniProt P54753); assay: Selectivity interaction (Kinase panel (DSF assay)) EUB0001558a EPHB3
# T2 sequence (whole entry): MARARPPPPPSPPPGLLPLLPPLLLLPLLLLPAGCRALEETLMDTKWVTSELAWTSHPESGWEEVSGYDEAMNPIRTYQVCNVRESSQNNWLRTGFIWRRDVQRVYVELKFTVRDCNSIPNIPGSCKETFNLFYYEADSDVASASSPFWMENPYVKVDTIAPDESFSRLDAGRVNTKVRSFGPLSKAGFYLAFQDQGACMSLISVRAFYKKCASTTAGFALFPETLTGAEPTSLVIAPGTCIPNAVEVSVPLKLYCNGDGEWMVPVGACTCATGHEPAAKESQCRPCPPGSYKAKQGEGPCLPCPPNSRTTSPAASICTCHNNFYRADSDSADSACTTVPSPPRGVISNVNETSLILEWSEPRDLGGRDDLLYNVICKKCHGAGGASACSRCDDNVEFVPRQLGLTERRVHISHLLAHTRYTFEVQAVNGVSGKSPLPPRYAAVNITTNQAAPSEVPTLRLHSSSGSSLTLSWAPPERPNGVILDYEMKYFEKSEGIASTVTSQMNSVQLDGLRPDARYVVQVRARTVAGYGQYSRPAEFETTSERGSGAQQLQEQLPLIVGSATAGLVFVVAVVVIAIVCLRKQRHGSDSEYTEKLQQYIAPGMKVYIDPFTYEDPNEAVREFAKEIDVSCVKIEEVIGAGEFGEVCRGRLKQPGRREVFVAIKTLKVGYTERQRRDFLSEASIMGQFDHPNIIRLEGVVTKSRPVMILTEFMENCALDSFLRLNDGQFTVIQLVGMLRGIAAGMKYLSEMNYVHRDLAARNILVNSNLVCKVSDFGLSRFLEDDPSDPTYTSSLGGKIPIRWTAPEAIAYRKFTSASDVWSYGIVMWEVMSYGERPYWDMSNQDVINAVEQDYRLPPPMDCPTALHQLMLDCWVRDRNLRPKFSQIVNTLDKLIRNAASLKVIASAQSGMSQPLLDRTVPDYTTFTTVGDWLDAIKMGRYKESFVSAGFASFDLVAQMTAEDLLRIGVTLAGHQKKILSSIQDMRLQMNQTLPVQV
# [4] = molecular target: T3, Protein arginine N-methyltransferase 7 (Homo sapiens) (UniProt Q9NVM4); assay: Selectivity interaction (Transferase panel (protein, RNA, and DNA methyltransferases. and EP300 (acetyltransferase))) EUB0000270b PRMT7
# T3 sequence (whole entry): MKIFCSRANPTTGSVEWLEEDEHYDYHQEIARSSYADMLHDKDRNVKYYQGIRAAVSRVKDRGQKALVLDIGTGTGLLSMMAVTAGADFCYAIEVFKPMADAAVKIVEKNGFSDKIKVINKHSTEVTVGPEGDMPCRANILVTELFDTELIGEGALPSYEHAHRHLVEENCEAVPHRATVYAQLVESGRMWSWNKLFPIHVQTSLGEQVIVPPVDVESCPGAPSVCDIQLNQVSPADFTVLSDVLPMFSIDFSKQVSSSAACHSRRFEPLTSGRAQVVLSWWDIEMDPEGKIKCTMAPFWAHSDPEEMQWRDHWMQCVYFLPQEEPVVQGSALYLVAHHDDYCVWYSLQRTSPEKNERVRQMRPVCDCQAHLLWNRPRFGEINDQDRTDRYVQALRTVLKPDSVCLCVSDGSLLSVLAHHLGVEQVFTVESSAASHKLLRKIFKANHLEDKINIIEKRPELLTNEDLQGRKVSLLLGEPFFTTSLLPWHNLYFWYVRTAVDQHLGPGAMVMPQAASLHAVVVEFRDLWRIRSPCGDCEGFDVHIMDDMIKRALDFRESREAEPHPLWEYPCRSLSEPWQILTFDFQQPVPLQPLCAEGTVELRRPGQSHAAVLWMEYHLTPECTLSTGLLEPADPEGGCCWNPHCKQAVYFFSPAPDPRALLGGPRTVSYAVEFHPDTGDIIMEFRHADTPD
# BDNF/NT-3 growth factors receptor (Homo sapiens), sequence (Q16620 32-822 limits assumed): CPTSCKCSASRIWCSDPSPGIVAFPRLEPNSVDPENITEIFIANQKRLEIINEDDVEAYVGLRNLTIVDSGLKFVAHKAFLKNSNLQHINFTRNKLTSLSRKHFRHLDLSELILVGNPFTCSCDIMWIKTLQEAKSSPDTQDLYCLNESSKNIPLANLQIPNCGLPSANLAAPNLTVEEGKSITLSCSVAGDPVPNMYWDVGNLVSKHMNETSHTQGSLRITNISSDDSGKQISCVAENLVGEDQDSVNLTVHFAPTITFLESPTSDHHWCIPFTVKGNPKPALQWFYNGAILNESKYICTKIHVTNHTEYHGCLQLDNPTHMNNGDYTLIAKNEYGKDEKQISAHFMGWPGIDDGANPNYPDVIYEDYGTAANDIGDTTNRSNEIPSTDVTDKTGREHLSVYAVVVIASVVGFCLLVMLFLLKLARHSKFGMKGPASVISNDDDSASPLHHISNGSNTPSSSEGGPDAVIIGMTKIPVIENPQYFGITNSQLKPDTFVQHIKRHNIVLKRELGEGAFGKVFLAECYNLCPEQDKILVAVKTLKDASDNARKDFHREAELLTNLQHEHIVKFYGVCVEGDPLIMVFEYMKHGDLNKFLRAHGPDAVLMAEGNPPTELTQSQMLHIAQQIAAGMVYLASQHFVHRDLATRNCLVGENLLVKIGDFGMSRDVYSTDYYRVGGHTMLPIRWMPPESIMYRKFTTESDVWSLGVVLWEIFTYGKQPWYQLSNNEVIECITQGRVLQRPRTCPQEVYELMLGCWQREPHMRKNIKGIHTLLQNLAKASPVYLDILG
# hERG (KCNH2), sequence (Q12809 whole entry): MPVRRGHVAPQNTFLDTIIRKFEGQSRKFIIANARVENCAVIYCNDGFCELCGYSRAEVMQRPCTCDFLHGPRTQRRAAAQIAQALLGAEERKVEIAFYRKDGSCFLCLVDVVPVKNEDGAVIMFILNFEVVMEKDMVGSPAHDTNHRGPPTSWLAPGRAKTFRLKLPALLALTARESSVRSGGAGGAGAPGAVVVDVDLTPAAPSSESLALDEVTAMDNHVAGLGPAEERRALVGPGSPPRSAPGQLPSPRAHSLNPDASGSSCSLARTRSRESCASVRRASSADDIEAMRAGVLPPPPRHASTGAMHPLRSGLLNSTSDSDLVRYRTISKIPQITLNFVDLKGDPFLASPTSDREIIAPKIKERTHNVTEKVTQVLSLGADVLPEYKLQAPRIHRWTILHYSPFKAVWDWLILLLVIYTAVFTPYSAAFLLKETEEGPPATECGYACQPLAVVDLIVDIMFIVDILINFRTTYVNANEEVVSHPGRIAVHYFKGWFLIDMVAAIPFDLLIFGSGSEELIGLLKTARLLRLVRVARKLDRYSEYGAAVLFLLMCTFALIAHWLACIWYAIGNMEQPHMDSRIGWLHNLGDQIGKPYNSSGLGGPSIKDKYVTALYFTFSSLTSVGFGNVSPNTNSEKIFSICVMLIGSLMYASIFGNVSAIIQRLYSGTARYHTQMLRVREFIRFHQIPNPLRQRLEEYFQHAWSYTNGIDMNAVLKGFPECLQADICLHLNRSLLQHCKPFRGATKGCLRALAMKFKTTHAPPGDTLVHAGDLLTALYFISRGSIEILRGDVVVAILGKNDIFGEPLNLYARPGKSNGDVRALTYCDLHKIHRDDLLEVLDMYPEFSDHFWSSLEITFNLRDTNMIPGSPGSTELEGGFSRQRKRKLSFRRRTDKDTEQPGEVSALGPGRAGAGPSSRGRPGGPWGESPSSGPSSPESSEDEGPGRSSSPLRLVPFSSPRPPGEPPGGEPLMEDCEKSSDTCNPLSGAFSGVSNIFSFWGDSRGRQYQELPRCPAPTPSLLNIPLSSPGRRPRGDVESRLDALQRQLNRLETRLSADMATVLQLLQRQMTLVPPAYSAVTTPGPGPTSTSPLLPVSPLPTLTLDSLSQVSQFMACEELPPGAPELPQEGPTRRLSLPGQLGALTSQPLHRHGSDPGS
smiles,measurement,setting,value
CN(C)C(=O)Cn1cc(-c2ccc(-c3cncc4ccccc34)cc2)cn1,activity,hERG (KCNH2),85%
Cc1cc(F)c(C(=O)Nc2cccc(-c3nncn3C(C)C)n2)cc1-n1cnc(C2CC2)c1,% of control,[1],100%
COc1cc(Nc2nc(C)cc(-c3cnn4nc(OC)ccc34)n2)cc(C(F)(F)F)c1,% of control,[2],96%
CC(C)(O)[C@H](F)CN1Cc2cc(NC(=O)c3cnn4cccnc34)c(N3CCOCC3)cc2C1=O,dTM,[3],2.1 K
Cc1cc(CN)cc(C)c1-c1ncn(C)c1-c1cncn1C,% activity,[4]; at 1 µM,> 90%
same,% activity,[4]; at 10 µM,> 80%

# Reference: ChEMBL document CHEMBL5465560, “Selectivity Literature for EUbOPEN Chemogenomic Library” (2024)
